{"source": "patent US20020051751A1", "about": "“Pharmaceuticals and apparatus providing diagnosis and selective tissue necrosis” (priority 1985, published 2002)", "origin": "cited, not measured here", "test_system": "DNA", "data": [{"substance": "Bleomycin", "values": [{"measurement": "binding constant of Bleomycin to DNA", "value": "10^6"}, {"measurement": "Bleomycin molecules bound per nucleotides", "setting": "results from Kd of 10^6", "value": "one Bleomycin molecule bound per eight nucleotides"}]}]}
